# Like-named read-outs stand apart in the source and are kept apart here.
# Legend:
# [1] = mouse, in vivo; cited from earlier work
# [2] = system: HepG2 cells; assay: cells; settings: read-out: EC50 cytoprotection; Table 7; HepG2 against CCl4 toxicity; estimated
# From the text: Experimental conditions were standardized on silybin. […]
# The ratio of IC50-to-EC50 (hereafter T/A) is also indicated in this table, which gives the margin between toxic and cytoprotective concentrations.
# [3] = Chromatographic hydrophobicity index (CHI) by RP-HPLC in buffered methanol; type: physicochemical; settings: for CHIMeOH: buffered methanol pH 7.0, Econosil C18 150 mm, Eq. (4)
# Description: (§1) We used Dynamax liquid chromatograph (Varian Chromatography Systems) with PDA-2 photodiode array UV detector, controlled by the Dynamax PC Chromatography Data System (v. 1.9) software and Dynamax dual pump solvent delivery system, model SD-200. […] Cucurbitacins analytical separation was optimized on Alltima C18 (Alltech; 250 mm×4.6 mm, 5 μm) HPLC column, at gradient elution in acetonitrile (ACN, 30-70% ACN in 57 min), and in MeOH (60-75% MeOH in 50 min). Cucurbitacins stock concentration of 10^−2M in DMSO:ethanol (1:1) was standardized against pure cucurbitacin I (Indofine Chemical Company, Hillsborough, N.J.) by analytical HPLC means. Compounds CHI was measured in both ACN, by using Alltima C18 column, and in MeOH, by using Econosil C18 column (Alltech; 150 mm×4.6 mm, 5 μm). Analytical separations were conducted at a flow rate of 1 ml/min. The aqueous phase was buffered for the CHI measurement. For this purpose, solid ammonium acetate (Fisher Sci. Co., Fair Lawn, N.J.) was dissolved in deionized distilled water at 50 mM final concentration and its pH adjusted to 7.0.
# A standard mixture of 10 compounds including 19-21, 23-27, aniline (compound 28) and bromobenzene (compound 29), dissolved in MeOH, was injected at five isochratic elution, at 40, 45, 50, 55, and 60% MeOH. Then the mixture was injected at fast gradient elution to establish the correlation from Eq. (1). The fast linear gradient elution was optimized for 30-100% MeOH in aqueous buffer with 10 min runtime.
# (§2) Cucurbitacins lipophilicity was measured by RP-HPLC. […] Due to its high viscosity, aqueous MeOH required a shorter column than the one applied for ACN. First, the C18 columns were calibrated against a standard mixture, and the relationships established between the fast gradient tR and φ0 or published CHI (see Eqs. (2)-(4) from Table 2). Second, cucurbitacins were injected at fast gradient elution under similar conditions, and their CHI calculated (Table 4) from Eqs. (2)-(4). Eqs.
# [4] = system: HepG2 cells; assay: Cucurbitacins cytotoxicity on HepG2 cells (MTT viability assay); type: cell-based, human
# Description: HepG2 (human hepatocellular carcinoma, ATCC) cells were grown in EMEM (Gibco, Grand Island, N.Y.) supplemented with 10% fetal bovine serum (FBS), and 1% penicillin/fungizone mixture (Gibco). Thabrew's optimized procedure (Thabrew et al., J. Pharm. Pharmcol. 49 (1994) 1442, the entire disclosure of which is herein incorporated by reference) was followed. Cells were batch cultured for 10 days, then seeded at concentration of 30,000 cells/well in fresh media in 96-well microtiter plastic plates at 37° C. for a day. Then cells were exposed to different concentrations of cucurbitacins at final volume of 100 μl/well. Five-fold serial dilution of compounds was carried out in the plate for five consecutive wells. After 24 h of incubation with chemicals, live cells were visualized using the MTT viability assay (Promega, Madison, Wis.). The absorbance was measured at 570 nm. Negative (without cells) and positive (without test chemicals) controls were also incubated with each plate. […] At least three reproducible experiments were performed per compound with three replicate wells per concentration.
# Cells were challenged with cu-curbitacins at various concentrations for a day and then live cells quantified with MTT dye. This period of time measures exclusively compounds cytotoxicity, while longer incubation time may lead to interference from metabolites.
# [5] = Chromatographic hydrophobicity index (CHI) by RP-HPLC in buffered acetonitrile; type: physicochemical; parameters: key: CHI = φ0 (isocratic hydrophobicity index), = A·tR + B; ACN % scale; settings: for CHIACN1: buffered acetonitrile pH 7.0, Alltima C18 250 mm, Eq. (2) from isocratic φ0; for CHIACN2: buffered acetonitrile pH 7.0, Eq. (3) calibrated against published CHI
# Description: as §1
# All standard compounds were purchased from Acros (Acros Organics, NJ). The chromatographic lipophilicity or hydrophobicity was determined applying Valkó's technique (Valkó et al., Anal. Chem. 69 (1997) 2022, the entire disclosure of which is herein incorporated by reference). A standard mixture of seven compounds was prepared in solution: theophylline (compound 19), benzimidazole (compound 20), acetophenone (compound 21), indole (compound 22), propiophenone (compound 23), butyrophenone (compound 24), and valerophenone (compound 25). […] The retention factor, log k=log((tR-t0)/t0), was calculated for each analyte from five good injections of […] sample. The dead time (t0) was measured by injecting NaNO3 together with the sample. Then, the log k values were plotted against isocratic ACN concentrations to establish the linear regression equations for each analyte. From each straight line the isocratic hydrophobicity index was computed, φ0=(intercept/slope). Further, the calibration mixture was injected at fast gradient elution, 0-22 min 0-100% ACN, and three additional minutes at 100% ACN. The φ0 values for the test compounds were plotted against gradient retention time and the linear equation determined from the following equation: φ0=CHI=AtR+B (1)
# The gradient elution conditions were similar to the one from the first approach.
# as §2
# [6] = system: HSC-T6 cells; assay: Serum-driven HSC-T6 proliferation, experiment 1 (4 h challenge, two days drug-free growth); type: cell-based, rat; settings: HSC-T6, 4 h challenge, then two days drug-free media
# Description: The proliferation effect of serum on HSC-T6 cells was optimized and cucurbitacin antiproliferative activity was measured. Serum contains a large number of growth factors, hormones and other nutrients, which help cells to grow and multiply. Several trials were conducted. In experiment 1, cells were challenged with cucurbitacin analogs for 4 h and then cells were grown in drug-free media for two additional days.
# HSC-T6 cells were photographed under phase-contrast microscope to record possible changes in cell morphology during experiment 1. […] We are monitoring specifically the effect of compound on the cells, cell recovery after 4 h challenge, and relative cell proliferation. […] Live cells are quantified at the end of the assay (row 4) with MTT dye.
# (§3) We established several experimental conditions such as 4 hours of incubation time with cucurbitacin, and 2 day cell incubation with fresh media after challenging with cucurbitacin (Exp. 1). Other experiments involved addition of cucurbitacin for 24 hours over starved cells (Exp. 2) vs. proliferating cells (Exp. 3), and one day incubation of cells with fresh media after challenge. […] Because of that, the challenge time was increased to 24 hours (Exp. 2 and 3).
# We modified this approach. Our assay included a second control (ZC) supplemented with no serum intended to measure cucurbitacin anti-proliferation effect relative to the number of cells generated during challenge instead of the total number of cells present in each well.
# [7] = system: HSC-T6 cells; assay: Serum-driven HSC-T6 proliferation, experiment 3 (24 h, proliferating cells); type: cell-based, rat; settings: HSC-T6, 24 h, proliferating cells; read-out: Experiment 3 EC50 (A)
# Description: To overcome this problem, the amount of incubation time was increased to 24 h, and cucurbitacin activity measured on starved (Exp. 2) or proliferative (Exp. 3) cells (Table 8). Cells turned quiescent when serum was not supplemented for one day (Exp. 2). Activity of a few compounds was monitored on quiescent cells, and their activity compared to the ones measured on proliferating cells (Exp. 3).
# as §3, with “challenge. The 4 hour incubation period with cucurbitacin triggered anti-proliferation effect. This effect, however, was hindered by a second cycle of cell proliferation during the two-day cell growth period (see silybin, E and I glucosides, and for I-nPr).” for “challenge.”
# In experiment 3, only 40% of the cells divided. The ratio of EC50 values for exp. 2 and exp. 3 varied between 3.6 and 12.7. This may indicate differential cytotoxicity of silybin and cucurbitacin analogs over quiescent and active stellate cells. In other words, compounds show higher anti-proliferative activity on active cells than on quiescent cells.
# [8] = system: HSC-T6 cells; assay: Cytotoxicity on HSC-T6 cells (experiment 3); type: cell-based, rat; settings: read-out: Experiment 3 IC50 (T)
# From the text: Cytotoxicity of all cucurbitacin analogs was additionally measured in experiment 3 (Table 8).
# [9] = system: HepG2 cells; type: cell-based, human
# Description: The activity of two toxins was studied first on HepG2 cells—bromobenzene (BB) and CCl4. Cells were challenged with the toxins at different concentration levels. Precipitate formation was observed when BB was diluted with media prior to addition to the cells; therefore, both the precipitate and the supernatant were added separately over cells to study their toxic effect.
# [10] = in vivo; cited from earlier work
# [11] = ABTS*+ Radical Cation Decolorization Assay; settings: read-out: concentration of 50% inhibition
# Description: Cucurbitacin B activity was monitored at 50 μM, 100 μM, and 1.8 mM. The time interval was expanded up to 2 hours in case cucurbitacin B was reacting slowly.
smiles,measurement,setting,value
"CC(C)(O)/C=C/C(=O)[C@](C)(O)[C@H]1[C@H](O)C[C@@]2(C)[C@@H]3CC=C4[C@@H](C[C@H](O)C(=O)C4(C)C)[C@]3(C)C(=O)C[C@]12C [D, cucurbitacin D]",capillary permeability,[1],enhanced capillary permeability
same,EC50,[2],9 µM
same,CHIMeOH,[3],60.40
same,IC50,"[4]; Table 4, 24 h incubation, MTT",77.3 µM
same,IC50,[4]; Table 5,77.3 ± 8.7 µM
same,IC50,[4]; Table 7,77.3 µM
same,CHIACN1,[5],58.31
same,CHIACN2,[5],55.83
same,EC50,[6],3.8 µM
same,EC50,[7],0.07 µM
same,IC50,[8],26 µM
"Brc1ccccc1 [Bromobenzene (29), bromobenzene, reference compound]",cell viability,"[9]; HepG2, toxin at 20 nM",no viability
same,CHIMeOH (b),"[3]; standard compounds, isochratic and gradient elution of standard mixture",69.43 + 0.07
"CC(=O)OC(C)(C)/C=C/C(=O)[C@@](C)(O)[C@H]1[C@H](O)C[C@@]2(C)[C@@H]3CC=C4[C@@H](CC(=O)[C@@H](O)C4(C)C)[C@]3(C)C(=O)C[C@]12C [iso-B, iso-cucurbitacin B]",CHIMeOH,[3],68.50
same,CHIACN1,[5],72.86
same,CHIACN2,[5],78.38
same,protective and preventive activity,[10],"significantly reducing serum enzymes level, steatosis, inflammation, and experimental cholestasis"
ClC(Cl)(Cl)Cl [CCl4],cell viability,"[9]; HepG2, toxin at 4.5×10^−3 M",~50%
"Cc1c(C)c2c(c(C)c1O)CCC(C)(C(=O)O)O2 (stereo not shown) [trolox, reference compound]",IC50,[11],580 µM

# — patent US20070049538A1, “METHODS FOR USING CUCURBITACIN COMPOUNDS” (SOUTH DAKOTA STATE UNIVERSITY, priority 2005, published 2007)
